According to patent US20240148821A1, “PHARMACEUTICAL USE OF CYCLIC PEPTIDE COMPOUND” (CHUGAI SEIYAKU KABUSHIKI KAISHA, priority 2021, published 2024):
Numbered stars: 1 amine (or outer) side, 2 acyl side, 3 side chain; on linkers, the order of the positions; unused ones are H or OH. Bridge positions count the residues as written; N and C are the ends. Square brackets hold non-standard residues; d marks the D form. Peptide text beside a SMILES is read from it. * marks the point of attachment. NMeAbu(3,3-F2-piperidino) = CN[C@@H](CCN1CCCC(F)(F)C1)C(=O)O; hPhe(3-Cl-4-CF3) = N[C@@H](CCc1ccc(C(F)(F)F)c(Cl)c1)C(=O)O; hPhe(3-F,4-CF3) = N[C@@H](CCc1ccc(C(F)(F)F)c(F)c1)C(=O)O; hPhe(4-CF3) = N[C@@H](CCc1ccc(C(F)(F)F)cc1)C(=O)O; Pro(cis-4-Ph) = O=C(O)[C@@H]1C[C@H](c2ccccc2)CN1; Phe(2-OCF3) = N[C@@H](Cc1ccccc1OC(F)(F)F)C(=O)O; NMePhe(4-Cl) = CN[C@@H](Cc1ccc(Cl)cc1)C(=O)O; NMePhe(4-Me) = CN[C@@H](Cc1ccc(C)cc1)C(=O)O; NMeMet(O2) = CN[C@@H](CCS(C)(=O)=O)C(=O)O; NMePhe(2-F) = CN[C@@H](Cc1ccccc1F)C(=O)O; NMeGly(cPent) = CN[C@H](C(=O)O)C1CCCC1; Phe(2-OMe) = COc1ccccc1C[C@H](N)C(=O)O; Phe(3-I) = N[C@@H](Cc1cccc(I)c1)C(=O)O; X26 = CC(C)=CC[C@H](N[*:1])C(=O)[*:2]; Pip(4-oxo) = O=C1CCN[C@H](C(=O)O)C1; NMeCha = CN[C@@H](CC1CCCCC1)C(=O)O; NMeChg = CN[C@H](C(=O)O)C1CCCCC1; NMeF = CN[C@@H](Cc1ccccc1)C(=O)O; NMeI = CC[C@H](C)[C@H](NC)C(=O)O; NMeT = CN[C@H](C(=O)O)[C@@H](C)O; NMeD = CN[C@@H](CC(=O)O)C(=O)O; NMeL = CN[C@@H](CC(C)C)C(=O)O; NMeV = CN[C@H](C(=O)O)C(C)C; d(β3hA) = C[C@@H](N)CC(=O)O; Pip = O=C(O)[C@@H]1CCCCN1; NMeA = CN[C@@H](C)C(=O)O; NMeAib = CNC(C)(C)C(=O)O; Piperidide = C1CCN(*)CC1; dNMeA = CN[C@H](C)C(=O)O; Ac5c = NC1(C(=O)O)CCCC1; Aze = O=C(O)[C@@H]1CCN1; Ac3c = NC1(C(=O)O)CC1; Sar = CNCC(=O)O

Test system: Human pancreatic cancer cell line AsPC-1 (G12D mutation Kras)
Experiment: AsPC-1 cell growth inhibition (AsPC-1 CGI)
Type: cell-based
Conditions: read-out: AsPC-1 cell growth inhibition, 50% growth inhibitory concentration (IC50 value); 96 hours, CellTiter-Glo, values classified in ranges
Procedure: Test compounds were serially dilated with dimethyl sulfoxide, and 200 nL was then dispensed to a U-bottom 96-well plate using Labcyte Echo. […] The cell suspension was dispensed to a. plate containing a test compound at 100 μL per well and incubated at 37° C. in a 5% carbon dioxide gas incubator. 96 hours later, 80 μL of CellTiter-Glo (Promega) was added to each well and fluorescence was measured.

Row | SMILES | IC50 [µM]
1 | CC[C@H](C)[C@@H]1NC(=O)[C@H](CC(C)C)N(C)C(=O)C[C@@H](C(=O)N(C)C)N(C)C(=O)[C@H](C2CCCC2)N(C)C(=O)C2(CCCC2)NC(=O)[C@H](Cc2ccc(Cl)cc2)N(C)C(=O)[C@H](CCc2ccc(C(F)(F)F)c(Cl)c2)NC(=O)CN(C)C(=O)[C@H](CC2CCCCC2)N(C)C(=O)[C@@H]2CCN2C(=O)[C@H](C)N(C)C1=O [Compound 1063] ([NMeL]I[NMeA][Aze][NMeCha][Sar][hPhe(3-Cl-4-CF3)][NMePhe(4-Cl)][Ac5c][NMeGly(cPent)][NMeD]-NMe2; lactam N-11) | > 0.5
2 | CC[C@H](C)[C@@H]1NC(=O)[C@H](C)N(C)C(=O)C[C@@H](C)NC(=O)[C@H](C2CCCC2)N(C)C(=O)C2(CCCC2)NC(=O)[C@@H]2CCCN2C(=O)[C@H](CCc2ccc(C(F)(F)F)c(Cl)c2)NC(=O)CN(C)C(=O)[C@H](Cc2ccccc2F)N(C)C(=O)[C@@H]2CCCN2C(=O)CN(C)C1=O [Compound 1077] (cyclo([Ac5c][NMeGly(cPent)][d(β3hA)][NMeA]I[Sar]P[NMePhe(2-F)][Sar][hPhe(3-Cl-4-CF3)]P)) | > 0.5
3 | CC[C@H](C)[C@@H]1NC(=O)[C@H](C)N(C)C(=O)C[C@@H](C)NC(=O)[C@H](C(C)C)N(C)C(=O)[C@H](Cc2ccccc2)N(C)C(=O)[C@H](CC(C)C)N(C)C(=O)[C@H](CCc2ccc(C(F)(F)F)c(Cl)c2)NC(=O)CN(C)C(=O)[C@H](Cc2ccc(Cl)cc2)N(C)C(=O)CN(C)C(=O)CN(C)C1=O [Compound 1079] (cyclo(I[Sar][Sar][NMePhe(4-Cl)][Sar][hPhe(3-Cl-4-CF3)][NMeL][NMeF][NMeV][d(β3hA)][NMeA])) | > 0.5
4 | CC[C@H](C)[C@@H]1NC(=O)[C@H](CC(C)C)N(C)C(=O)C[C@@H](C(=O)N(C)C)N(C)C(=O)[C@H](C2CCCC2)N(C)C(=O)[C@H](C)NC(=O)[C@H](CCN2CCCC(F)(F)C2)N(C)C(=O)[C@H](CCc2ccc(C(F)(F)F)c(Cl)c2)NC(=O)CN(C)C(=O)[C@H](CC2CCCCC2)N(C)C(=O)[C@@H]2CCN2C(=O)[C@H](C)N(C)C1=O [Compound 1081] ([NMeL]I[NMeA][Aze][NMeCha][Sar][hPhe(3-Cl-4-CF3)][NMeAbu(3,3-F2-piperidino)]A[NMeGly(cPent)][NMeD]-NMe2; lactam N-11) | > 0.5
5 | CC[C@H](C)[C@@H]1NC(=O)[C@H](CC(C)C)N(C)C(=O)C[C@@H](C(=O)N2CCCCC2)N(C)C(=O)[C@H](C2CCCCC2)N(C)C(=O)C2(CCCC2)NC(=O)[C@@H]2CC(=O)CCN2C(=O)[C@H](CCc2ccc(C(F)(F)F)c(Cl)c2)NC(=O)CN(C)C(=O)[C@H](CC2CCCCC2)N(C)C(=O)CN(C)C(=O)CN(C)C1=O [Compound 1089] ([NMeL]I[Sar][Sar][NMeCha][Sar][hPhe(3-Cl-4-CF3)][Pip(4-oxo)][Ac5c][NMeChg][NMeD]-Piperidide; lactam N-11) | > 0.5
6 | CC[C@H](C)[C@@H]1NC(=O)[C@H](CC(C)C)N(C)C(=O)C[C@@H](C(=O)N2CCCCC2)N(C)C(=O)[C@H](C2CCCCC2)N(C)C(=O)C2(CCCC2)NC(=O)[C@@H]2CCCN2C(=O)[C@H](CCc2ccc(C(F)(F)F)c(Cl)c2)NC(=O)CN(C)C(=O)[C@H](CCS(C)(=O)=O)N(C)C(=O)CN(C)C(=O)CN(C)C1=O [Compound 1094] ([NMeL]I[Sar][Sar][NMeMet(O2)][Sar][hPhe(3-Cl-4-CF3)]P[Ac5c][NMeChg][NMeD]-Piperidide; lactam N-11) | > 0.5
7 | CC[C@H](C)[C@@H]1NC(=O)[C@H](CC(C)C)N(C)C(=O)C[C@@H](C(=O)N2CCCCC2)N(C)C(=O)[C@H](C2CCCCC2)N(C)C(=O)C2(CCCC2)NC(=O)[C@@H]2C[C@H](c3ccccc3)CN2C(=O)[C@H](CCc2ccc(C(F)(F)F)c(Cl)c2)NC(=O)CN(C)C(=O)[C@H](CC2CCCCC2)N(C)C(=O)[C@@H]2CCCN2C(=O)CN(C)C1=O [Compound 1096] ([NMeL]I[Sar]P[NMeCha][Sar][hPhe(3-Cl-4-CF3)][Pro(cis-4-Ph)][Ac5c][NMeChg][NMeD]-Piperidide; lactam N-11) | > 0.5
8 | CC[C@H](C)[C@@H]1NC(=O)[C@H](CC(C)C)N(C)C(=O)C[C@@H](C(=O)N2CCCCC2)N(C)C(=O)[C@H](C2CCCC2)N(C)C(=O)C2(CCCC2)NC(=O)[C@@H]2CCCN2C(=O)[C@H](CCc2ccc(C(F)(F)F)c(F)c2)NC(=O)CN(C)C(=O)[C@H](C2CCCC2)N(C)C(=O)[C@@H]2CCN2C(=O)[C@H](C)N(C)C1=O [Compound 1099] ([NMeL]I[NMeA][Aze][NMeGly(cPent)][Sar][hPhe(3-F,4-CF3)]P[Ac5c][NMeGly(cPent)][NMeD]-Piperidide; lactam N-11) | ≤ 0.02
9 | CC[C@H](C)[C@@H]1NC(=O)[C@H](CC(C)C)N(C)C(=O)C[C@@H](C(=O)N2CCCCC2)N(C)C(=O)[C@H](CC(C)C)NC(=O)C(C)(C)N(C)C(=O)[C@H](Cc2ccccc2OC)NC(=O)[C@H](Cc2cccc(I)c2)NC(=O)CN(C)C(=O)[C@H](Cc2ccc(C)cc2)N(C)C(=O)CN(C)C(=O)CN(C)C1=O [Compound 1100] ([NMeL]I[Sar][Sar][NMePhe(4-Me)][Sar][Phe(3-I)][Phe(2-OMe)][NMeAib]L[NMeD]-Piperidide; lactam N-11) | > 0.5
10 | CC[C@H](C)[C@@H]1NC(=O)[C@H](CC(C)C)N(C)C(=O)C[C@@H](C(=O)N2CCCCC2)N(C)C(=O)[C@H]([C@@H](C)OC)N(C)C(=O)C2(CCCC2)NC(=O)[C@@H]2CCCN2C(=O)[C@H](CCc2ccc(C(F)(F)F)c(Cl)c2)NC(=O)CN(C)C(=O)[C@H](CC2CCCCC2)N(C)C(=O)CN(C)C(=O)CN(C)C1=O [Compound 1101] ([NMeL]I[Sar][Sar][NMeCha][Sar][hPhe(3-Cl-4-CF3)]P[Ac5c][NMeT](Me)[NMeD]-Piperidide; lactam N-11) | > 0.5
11 | CC[C@H](C)[C@@H]1NC(=O)[C@H](C)N(C)C(=O)C[C@@H](C(=O)N2CCCCC2)N(C)C(=O)[C@H](C(C)C)N(C)C(=O)C2(CCCC2)NC(=O)[C@@H]2CCCN2C(=O)[C@H](CCc2ccc(C(F)(F)F)c(Cl)c2)NC(=O)[C@@H](C)N(C)C(=O)[C@H](CC2CCCCC2)N(C)C(=O)[C@@H]2CCN2C(=O)[C@H](C)N(C)C1=O [Compound 1103] ([NMeA]I[NMeA][Aze][NMeCha][dNMeA][hPhe(3-Cl-4-CF3)]P[Ac5c][NMeV][NMeD]-Piperidide; lactam N-11) | > 0.5
12 | CC[C@H](C)[C@@H]1NC(=O)[C@H](CC(C)C)N(C)C(=O)C[C@@H](C(=O)N2CCCCC2)N(C)C(=O)[C@H](C(C)C)NC(=O)C2(CCCC2)NC(=O)[C@@H]2CCCN2C(=O)[C@H](CCc2ccc(C(F)(F)F)c(Cl)c2)NC(=O)CN(C)C(=O)[C@H](CC2CCCCC2)N(C)C(=O)[C@@H]2CCN2C(=O)[C@H](C)N(C)C1=O [Compound 1106] ([NMeL]I[NMeA][Aze][NMeCha][Sar][hPhe(3-Cl-4-CF3)]P[Ac5c]V[NMeD]-Piperidide; lactam N-11) | > 0.5
13 | CC[C@H](C)[C@@H]1NC(=O)[C@@H]2CCCCN2C(=O)C[C@@H](C)NC(=O)[C@H](C(C)C)N(C)C(=O)[C@H](Cc2ccccc2)N(C)C(=O)[C@H](CC(C)C)N(C)C(=O)[C@H](CCc2ccc(C(F)(F)F)cc2)NC(=O)CN(C)C(=O)[C@H](Cc2ccc(Cl)cc2)N(C)C(=O)CN(C)C(=O)CN(C)C1=O [Compound 1110] (cyclo(I[Sar][Sar][NMePhe(4-Cl)][Sar][hPhe(4-CF3)][NMeL][NMeF][NMeV][d(β3hA)][Pip])) | > 0.5
14 | CC[C@H](C)[C@@H]1NC(=O)[C@H](CC(C)C)N(C)C(=O)C[C@@H](C)NC(=O)[C@H](C(C)C)N(C)C(=O)C2(CC2)NC(=O)[C@@H]2CCCN2C(=O)[C@H](CCc2ccc(C(F)(F)F)c(Cl)c2)NC(=O)CN(C)C(=O)[C@H](CC2CCCCC2)N(C)C(=O)CN(C)C(=O)CN(C)C1=O [Compound 1111] (cyclo([Ac3c][NMeV][d(β3hA)][NMeL]I[Sar][Sar][NMeCha][Sar][hPhe(3-Cl-4-CF3)]P)) | > 0.5
15 | CC[C@H](C)[C@@H]1NC(=O)[C@H](C)N(C)C(=O)C[C@@H](C(=O)N2CCCCC2)N(C)C(=O)[C@H](C(C)C)N(C)C(=O)C2(CCCC2)NC(=O)[C@@H]2CCCN2C(=O)[C@H](CCc2ccc(C(F)(F)F)c(Cl)c2)NC(=O)CN(C)C(=O)[C@H](CC2CCCCC2)N(C)C(=O)[C@@H]2CCCN2C(=O)CN(C)C1=O [Compound 1121] ([NMeA]I[Sar]P[NMeCha][Sar][hPhe(3-Cl-4-CF3)]P[Ac5c][NMeV][NMeD]-Piperidide; lactam N-11) | > 0.5
16 | CC[C@H](C)[C@@H]1NC(=O)[C@H](CC(C)C)N(C)C(=O)C[C@@H](C(=O)N2CCCCC2)N(C)C(=O)[C@H](CC(C)C)NC(=O)C(C)(C)N(C)C(=O)[C@H](Cc2ccccc2OC(F)(F)F)NC(=O)[C@H](Cc2cccc(I)c2)NC(=O)CN(C)C(=O)[C@H](Cc2ccc(C)cc2)N(C)C(=O)[C@@H]2CCN2C(=O)[C@H](C)N(C)C1=O [Compound 1129] ([NMeL]I[NMeA][Aze][NMePhe(4-Me)][Sar][Phe(3-I)][Phe(2-OCF3)][NMeAib]L[NMeD]-Piperidide; lactam N-11) | > 0.5
17 | CC(C)=CC[C@@H]1NC(=O)[C@H](CC(C)C)N(C)C(=O)C[C@@H](C(=O)N2CCCCC2)N(C)C(=O)[C@H](C2CCCCC2)N(C)C(=O)C2(CCCC2)NC(=O)[C@@H]2CCCN2C(=O)[C@H](CCc2ccc(C(F)(F)F)c(Cl)c2)NC(=O)CN(C)C(=O)[C@H](CC2CCCCC2)N(C)C(=O)CN(C)C(=O)CN(C)C1=O [Compound 1134] ([NMeL][X26][Sar][Sar][NMeCha][Sar][hPhe(3-Cl-4-CF3)]P[Ac5c][NMeChg][NMeD]-Piperidide; lactam N-11) | > 0.5
18 | CC[C@H](C)[C@@H]1NC(=O)[C@H](CC(C)C)N(C)C(=O)C[C@@H](C(=O)N(C)C)N(C)C(=O)[C@H]([C@@H](C)CC)N(C)C(=O)[C@H](C)NC(=O)[C@H](CCN2CCCC(F)(F)C2)N(C)C(=O)[C@H](CCc2ccc(C(F)(F)F)c(Cl)c2)NC(=O)CN(C)C(=O)[C@H](Cc2ccc(C)cc2)N(C)C(=O)[C@@H]2CCN2C(=O)[C@H](C)N(C)C1=O [Compound 1135] ([NMeL]I[NMeA][Aze][NMePhe(4-Me)][Sar][hPhe(3-Cl-4-CF3)][NMeAbu(3,3-F2-piperidino)]A[NMeI][NMeD]-NMe2; lactam N-11) | > 0.5
